Data from PMC11094793, “Discovery of LLC0424 as a Potent and Selective in Vivo NSD2 PROTAC Degrader” (Journal of Medicinal Chemistry, 2024).
Like-named read-outs stand apart in the source and are kept apart here.

Target: T1, NSD2 (Homo sapiens, UniProt O96028)
T1 sequence (O96028 1-1365): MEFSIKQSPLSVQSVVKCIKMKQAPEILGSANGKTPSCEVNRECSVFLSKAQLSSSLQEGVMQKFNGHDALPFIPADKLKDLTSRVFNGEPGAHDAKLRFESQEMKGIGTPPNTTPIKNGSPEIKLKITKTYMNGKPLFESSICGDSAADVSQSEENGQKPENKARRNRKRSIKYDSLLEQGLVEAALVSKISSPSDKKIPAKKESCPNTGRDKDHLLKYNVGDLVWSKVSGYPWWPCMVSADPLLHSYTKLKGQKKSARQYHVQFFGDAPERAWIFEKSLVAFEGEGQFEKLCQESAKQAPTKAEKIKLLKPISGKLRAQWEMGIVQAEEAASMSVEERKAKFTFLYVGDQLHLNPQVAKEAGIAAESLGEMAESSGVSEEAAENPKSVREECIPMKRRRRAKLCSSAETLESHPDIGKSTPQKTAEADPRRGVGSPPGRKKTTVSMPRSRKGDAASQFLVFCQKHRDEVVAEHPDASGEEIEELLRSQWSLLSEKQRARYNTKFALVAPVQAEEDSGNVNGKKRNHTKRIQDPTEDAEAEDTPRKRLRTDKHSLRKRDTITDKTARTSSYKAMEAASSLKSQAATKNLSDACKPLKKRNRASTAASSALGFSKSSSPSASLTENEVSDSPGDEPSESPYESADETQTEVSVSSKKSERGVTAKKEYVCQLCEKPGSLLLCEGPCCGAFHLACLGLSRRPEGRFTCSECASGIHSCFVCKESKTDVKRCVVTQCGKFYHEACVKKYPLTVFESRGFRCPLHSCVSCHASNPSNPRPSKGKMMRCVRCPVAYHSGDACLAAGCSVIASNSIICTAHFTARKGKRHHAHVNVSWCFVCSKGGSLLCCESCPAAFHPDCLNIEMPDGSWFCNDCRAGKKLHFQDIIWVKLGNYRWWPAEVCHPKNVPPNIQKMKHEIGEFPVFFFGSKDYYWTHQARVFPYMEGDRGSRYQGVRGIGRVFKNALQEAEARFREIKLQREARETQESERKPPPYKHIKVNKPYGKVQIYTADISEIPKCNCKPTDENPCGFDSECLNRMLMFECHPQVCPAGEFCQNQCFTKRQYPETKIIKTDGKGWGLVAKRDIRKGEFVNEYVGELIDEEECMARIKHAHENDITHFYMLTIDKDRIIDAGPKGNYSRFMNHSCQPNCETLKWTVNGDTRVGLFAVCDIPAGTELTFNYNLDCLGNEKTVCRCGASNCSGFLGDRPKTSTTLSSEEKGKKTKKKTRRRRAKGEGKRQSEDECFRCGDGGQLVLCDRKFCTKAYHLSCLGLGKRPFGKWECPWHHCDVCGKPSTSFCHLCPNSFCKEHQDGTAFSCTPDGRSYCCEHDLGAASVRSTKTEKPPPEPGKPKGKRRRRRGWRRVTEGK
Assay: Compound screening: NSD2 degradation by immunoblotting in VCaP cells
Conditions: 24 h; for Dmax at 2 µM: VCaP

[1] = read-out: 2.0 μM Degradation % (VCaP)

Method: After treatment, the cultured cells were collected and rinsed with phosphate-buffered saline (PBS) in room temperature. The cells were treated with RIPA buffers (ThermoFisher Scientific) supplemented with Halt Protease and Phosphatase Inhibitor Cocktail (ThermoFisher Scientific). After sonication and centrifugation, the total amount of protein in the cell lysates was measured by Pierce Bovine Serum Albumin Standard Pre-Diluted Set (ThermoFisher Scientific). […] After incubated with HRP-conjugated secondary antibodies, the membranes were developed with ECL Prime Western Blotting Detection Reagent (cytiva) and imaged on Odyssey Fc Imager (LiCOR Biosciences).
Western blot was then performed as previously described to detect NSD2 degradation.

Structure (SMILES)	% Degradation (2 μM, VCaP cells, immunoblotting)	Dmax at 2 µM [1] [%]	Dmax at 2 µM (read-out: % Degradation) [%]
O=C1CCC(N2C(=O)c3ccc(NCCCCCNC(=O)c4ccc(NC(=O)c5ccc(CN(C(=O)c6ccc7c(c6)OCC(=O)N7)C6CC6)cc5)cc4)cc3C2=O)C(=O)N1 (stereo not drawn) [10h, N-Cyclopropyl-N-(4-((4-((5-((2-(2,6-dioxopiperidin-3-yl)-1,3-dioxoisoindolin-5-yl)amino)pentyl)carbamoyl)phenyl)carbamoyl)benzyl)-3-oxo-3,4-dihydro-2H-benzo[b][1,4]oxazine-7-carboxamide]	–	80	80
O=C1CCC(N2C(=O)c3ccc(NCCCCCCNC(=O)c4ccc(NC(=O)c5ccc(CN(C(=O)c6ccc7c(c6)OCC(=O)N7)C6CC6)cc5)cc4)cc3C2=O)C(=O)N1 (stereo not drawn) [10i, N-Cyclopropyl-N-(4-((4-((6-((2-(2,6-dioxopiperidin-3-yl)-1,3-dioxoisoindolin-5-yl)amino)hexyl)carbamoyl)phenyl)carbamoyl)benzyl)-3-oxo-3,4-dihydro-2H-benzo[b][1,4]oxazine-7-carboxamide]	–	83	83
O=C1CCC(N2C(=O)c3cccc(NCCCCCCCCNC(=O)c4ccc(NC(=O)c5ccc(CN(C(=O)c6ccc7c(c6)OCC(=O)N7)C6CC6)cc5)cc4)c3C2=O)C(=O)N1 (stereo not drawn) [10d, N-Cyclopropyl-N-(4-((4-((8-((2-(2,6-dioxopiperidin-3-yl)-1,3-dioxoisoindolin-4-yl)amino)octyl)carbamoyl)phenyl)carbamoyl)benzyl)-3-oxo-3,4-dihydro-2H-benzo[b][1,4]oxazine-7-carboxamide]	–	13	13

The next lines start with the values.

% Degradation (2 μM, VCaP cells, immunoblotting)	Dmax at 2 µM [1] [%]	Dmax at 2 µM (read-out: % Degradation) [%]	Structure (SMILES)
significant potency loss	48	48	O=C1CCC(N2C(=O)c3ccc(NC4CCN(C(=O)c5ccc(NC(=O)c6ccc(CN(C(=O)c7ccc8c(c7)OCC(=O)N8)C7CC7)cc6)cc5)CC4)cc3C2=O)C(=O)N1 (stereo not drawn) [compound 10k, N-Cyclopropyl-N-(4-((4-(4-((2-(2,6-dioxopiperidin-3-yl)-1,3-dioxoisoindolin-5-yl)amino)piperidine-1-carbonyl)phenyl)carbamoyl)benzyl)-3-oxo-3,4-dihydro-2H-benzo[b][1,4]oxazine-7-carboxamide]
–	30	30	CC1(NC(=O)c2ccc(NC(=O)c3ccc(CN(C(=O)c4ccc5c(c4)OCC(=O)N5)C4CC4)cc3)cc2)CCN(c2ccc3c(c2)C(=O)N(C2CCC(=O)NC2=O)C3=O)CC1 (stereo not drawn) [10p, N-Cyclopropyl-N-(4-((4-((1-(2-(2,6-dioxopiperidin-3-yl)-1,3-dioxoisoindolin-5-yl)-4-methylpiperidin-4-yl)carbamoyl)phenyl)carbamoyl)benzyl)-3-oxo-3,4-dihydro-2H-benzo[b][1,4]oxazine-7-carboxamide]
–	25	25	O=C1CCC(N2C(=O)c3cccc(NCCCCCCNC(=O)c4ccc(NC(=O)c5ccc(CN(C(=O)c6ccc7c(c6)OCC(=O)N7)C6CC6)cc5)cc4)c3C2=O)C(=O)N1 (stereo not drawn) [10c, N-Cyclopropyl-N-(4-((4-((6-((2-(2,6-dioxopiperidin-3-yl)-1,3-dioxoisoindolin-4-yl)amino)hexyl)carbamoyl)phenyl)carbamoyl)benzyl)-3-oxo-3,4-dihydro-2H-benzo[b][1,4]oxazine-7-carboxamide]
–	89	89	CN(C(=O)c1ccc(NC(=O)c2ccc(CN(C(=O)c3ccc4c(c3)OCC(=O)N4)C3CC3)cc2)cc1)C1CCN(c2ccc3c(c2)C(=O)N(C2CCC(=O)NC2=O)C3=O)CC1 (stereo not drawn) [10o, N-Cyclopropyl-N-(4-((4-((1-(2-(2,6-dioxopiperidin-3-yl)-1,3-dioxoisoindolin-5-yl)piperidin-4-yl)(methyl)carbamoyl)phenyl)carbamoyl)benzyl)-3-oxo-3,4-dihydro-2H-benzo[b][1,4]oxazine-7-carboxamide]
